Measurements taken from the supplement of paper PMC10307832.

Assays:
Experiment in all cases: relative viability (nuclei count vs DMSO), 5 days (fraction); higher = more cells survive
[1] = compound: COc1cc2nc(N3CCCN(C)CC3)nc(NC3CCN(Cc4ccccc4)CC3)c2cc1OC + CC(C)C[C@H](NC(=O)[C@H](Cc1ccccc1)NC(=O)c1cnccn1)B(O)O [Bortezomib] (partner 0.002 µM)
How it was run: (§1)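 Relative viability was taken as the ratio of nuclei in treated wells to nuclei in vehicle wells. Lung cancer cell lines in 1536-well plates received compounds by pin tool one day after seeding, either one drug alone or a fixed anchor-drug dose plus five library-drug doses (not always all listed) in √10 steps. Nuclei were counted on 4× images after 5 days of treatment, and values are medians of duplicate plates.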

[2] = compound: COc1cc2nc(N3CCCN(C)CC3)nc(NC3CCN(Cc4ccccc4)CC3)c2cc1OC + CS(=O)(=O)CCNCc1ccc(-c2ccc3ncnc(Nc4ccc(OCc5cccc(F)c5)c(Cl)c4)c3c2)o1 [Lapatinib] (partner 2 µM)
How it was run: as §1

[3] = compound: COc1cc2nc(N3CCCN(C)CC3)nc(NC3CCN(Cc4ccccc4)CC3)c2cc1OC + C[C@]1(O)C[C@@H](c2nc(-c3ccc4ccc(-c5ccccc5)nc4c3)c3c(N)nccn32)C1 [Linsitinib] (partner 1 µM)
How it was run: as §1

[4] = compound: COc1cc2nc(N3CCCN(C)CC3)nc(NC3CCN(Cc4ccccc4)CC3)c2cc1OC + Cc1cc(Nc2cc(N3CCN(C)CC3)nc(Sc3ccc(NC(=O)C4CC4)cc3)n2)n[nH]1 [Tozasertib] (partner 0.1 µM)
How it was run: as §1

[5] = compound: COc1cc2nc(N3CCCN(C)CC3)nc(NC3CCN(Cc4ccccc4)CC3)c2cc1OC + O=C(c1cc(Cc2n[nH]c(=O)c3ccccc23)ccc1F)N1CCN(C(=O)C2CC2)CC1 [Olaparib] (partner 8 µM)
How it was run: as §1

Row | Cell Line | relative viability ([1]; first compound 0.2 µM) | relative viability ([1]; first compound 0.6325 µM) | relative viability ([1]; first compound 2 µM) | relative viability ([1]; first compound 6.325 µM) | relative viability ([2]; first compound 0.2 µM) | relative viability ([2]; first compound 0.6325 µM) | relative viability ([2]; first compound 2 µM) | relative viability ([2]; first compound 6.325 µM) | relative viability ([3]; first compound 0.2 µM) | relative viability ([3]; first compound 0.6325 µM) | relative viability ([3]; first compound 2 µM) | relative viability ([3]; first compound 6.325 µM) | relative viability ([4]; first compound 0.2 µM) | relative viability ([4]; first compound 0.6325 µM) | relative viability ([4]; first compound 2 µM) | relative viability ([4]; first compound 6.325 µM) | relative viability ([5]; first compound 0.2 µM) | relative viability ([5]; first compound 0.6325 µM) | relative viability ([5]; first compound 2 µM) | relative viability ([5]; first compound 6.325 µM)
1 | NCI-H3122 | 0.97 | 0.966 | 1.07 | 0.989 | 1.07 | 1.01 | 1.01 | 1.01 | 1.01 | 1.01 | 1.03 | 1.06 | 0.429 | 0.413 | 0.543 | 0.536 | 0.644 | 0.616 | 0.634 | 0.629
2 | HCC-827 | 0.99 | 1.13 | 0.786 | 1.06 | 0.181 | 0.196 | 0.198 | 0.193 | 1 | 0.969 | 0.967 | 0.941 | 0.406 | 0.45 | 0.374 | 0.423 | 0.753 | 0.626 | 0.685 | 0.622
3 | SK-LU-1 | 1.14 | 1.19 | 1.5 | 1.07 | 0.818 | 0.754 | 1 | 0.839 | 0.996 | 1.07 | 0.886 | 0.724 | 0.363 | 0.349 | 0.363 | 0.352 | 0.45 | 0.384 | 0.564 | 0.366
4 | NCI-H1975 | 0.371 | 0.376 | 0.346 | 0.413 | 0.93 | 0.968 | 1.01 | 0.881 | 0.989 | 1.02 | 1.11 | 0.905 | 0.797 | 0.804 | 0.999 | 0.832 | 0.761 | 0.755 | 0.915 | 0.823
5 | NCI-H1651 | 0.884 | 0.939 | 1.03 | 0.934 | 0.785 | 0.807 | 0.834 | 0.855 | 1.02 | 0.903 | 1.09 | 0.893 | 0.846 | 0.75 | 1.01 | 0.668 | 0.181 | 0.149 | 0.157 | 0.17
6 | LCLC-97TM1 | 0.439 | 0.939 | 0.697 | 0.517 | 0.875 |  | 1.17 | 0.836 | 0.176 |  | 0.159 | 0.195 | 0.185 | 0.423 | 0.311 | 0.256 | 0.488 | 0.312 | 0.48 | 0.63
7 | NCI-H727 | 0.756 | 0.893 | 0.751 | 0.618 | 0.769 | 0.901 | 0.838 | 0.543 | 0.316 | 0.277 | 0.369 | 0.221 | 0.655 | 0.689 | 0.828 | 0.584 | 0.646 | 0.616 | 0.772 | 0.59
8 | NCI-H1355 | 1.23 | 1.21 | 1.29 | 1.1 | 1.01 | 0.992 | 1.05 | 0.951 | 0.881 | 0.784 | 0.831 | 0.808 | 0.565 | 0.539 | 0.582 | 0.546 | 0.714 | 0.743 | 0.862 | 0.79
9 | HOP-62 | 0.623 | 0.869 | 0.855 | 0.469 | 1.04 | 1.05 | 1.07 | 1 | 0.878 | 0.992 | 1.03 | 0.7 | 0.406 | 0.371 | 0.401 | 0.441 | 0.393 | 0.202 | 0.355 | 0.537
10 | NCI-H2085 | 1 | 0.978 | 0.996 | 0.912 | 0.698 | 0.772 | 0.798 | 0.605 | 0.9 | 0.917 | 0.956 | 0.84 | 0.884 | 0.895 | 0.971 | 0.612 | 0.775 | 0.82 | 0.869 | 0.785
